From patent US20260199484A1, “PROTAC DEGRADERS OF MLLT1 AND/OR MLLT3” (DARK BLUE THERAPEUTICS LTD, priority 2024, published 2026)

Key:
MV4-11 cells = assay: MV4-11 cellular proliferative assay, Assay Format B (CTG 2.0, 168 h); format: cell-based; conditions: Homo sapiens, Assay format B, 168 h, read-out: IC50 (MV4-11 cellular proliferative assay)
Description: MV4-11 cells at a confluency of ~50-80% was used for cell growth assay. 600 cells/well in a 384-well opaque cell culture plate (6007680; Perkin Elmer) were seeded in 40 μL of complete medium (IMDM+10% FBS+1× Penicillin-Streptomycin). Cells were incubated overnight at 37° C., 5% CO2. 10 mM DMSO stocks were prepared, cells were treated with 10 concentrations of test compounds starting from 1 uM or 100 nM, 3-fold dilution in 10 uL (5× concentration) of complete medium. Final DMSO concentration was 0.3%. Culture plates were centrifuged at 40×g, 30s. Cells were incubated with compounds for 168 h (7 days). After 7 days, 20 uL CTG 2.0 reagent (G9242; Promega) was added per well and luminescence reading was taken in Envision Xcite 2105 multimode plate reader. Data was analyzed in GraphPad Prism 10.0 and data was shown as % viability with respect to DMSO control and dose-response curves were generated using four parameter logistic regression. Assay quality was determined by z-factor calculation using positive and negative controls.

MLLT1 = biological target: T1, MLLT1 (Homo sapiens, UniProt Q03111); assay: MLLT1 degradation assay in MV4-11 cells (JESS, 24 h); format: cell-based; design: endogenous in cells; host or cells: MV4-11 (ATCC CRL-9591); conditions: vs DMSO control
T1 sequence (Q03111 1-559): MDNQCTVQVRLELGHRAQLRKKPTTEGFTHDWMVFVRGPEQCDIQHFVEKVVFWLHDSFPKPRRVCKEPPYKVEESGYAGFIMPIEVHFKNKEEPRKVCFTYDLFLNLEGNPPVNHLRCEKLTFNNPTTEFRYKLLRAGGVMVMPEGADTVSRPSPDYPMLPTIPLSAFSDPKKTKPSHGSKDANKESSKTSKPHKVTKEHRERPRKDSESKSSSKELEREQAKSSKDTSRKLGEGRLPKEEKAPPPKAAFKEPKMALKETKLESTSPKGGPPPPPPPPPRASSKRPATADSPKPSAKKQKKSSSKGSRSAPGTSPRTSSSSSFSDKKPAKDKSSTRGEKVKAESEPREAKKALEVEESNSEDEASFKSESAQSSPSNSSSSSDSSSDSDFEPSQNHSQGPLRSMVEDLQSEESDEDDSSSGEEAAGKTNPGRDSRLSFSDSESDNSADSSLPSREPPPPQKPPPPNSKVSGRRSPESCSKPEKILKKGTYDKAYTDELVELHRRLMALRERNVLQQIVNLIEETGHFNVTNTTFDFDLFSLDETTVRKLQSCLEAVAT
Procedure, shortened: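 MV4-11 cells treated at 1000, 100 and 10 nM (0.1% DMSO) for 24 h at 37° C; lysates (4 ug protein) run on JESS capillary immunoassay with MLLT1 and GAPDH antibodies. Peak areas give % degradation versus DMSO, binned A (≥75%) to D (<25%).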

IC50 (MV4-11 cells) | MLLT1% Degradation @ 0.01 μM (MLLT1) | MLLT1% Degradation @ 0.1 μM (MLLT1) | MLLT1% Degradation @ 1 μM (MLLT1) | SMILES
< 100 nM | A (Category A: A≥75% degradation) | A (Category A: A≥75% degradation) | A (Category A: A≥75% degradation) | Cc1nn(CCCCCCCC#Cc2cccc3c2CN([C@@H]2CCC(=O)NC2=O)C3=O)c2cc(C(=O)Nc3cc4[nH]c([C@H]5CCCN5C)cc4cn3)c(F)cc12 (relative stereo) [Example 103, 1-(9-(2-((rel-R)-2,6-dioxopiperidin-3-yl)-1-oxoisoindolin-4-yl)non-8-yn-1-yl)-5-fluoro-3-methyl-N-(2-((R)-1-methylpyrrolidin-2-yl)-1H-pyrrolo[3,2-c]pyridin-6-yl)-1H-indazole-6-carboxamide]
< 100 nM | A (Category A: A≥75% degradation) | A (Category A: A≥75% degradation) | A (Category A: A≥75% degradation) | Cc1nn(CC2CCN(c3cccc4c3CN(C3CCC(=O)NC3=O)C4=O)CC2)c2cc(C(=O)Nc3cc4[nH]c([C@H]5CCCN5C)cc4cn3)ccc12 (stereo in doubt) [Example 107, 1-((1-(2-((rel-S)-2,6-dioxopiperidin-3-yl)-1-oxoisoindolin-4-yl)piperidin-4-yl)methyl)-3-methyl-N-(2-((R)-1-methylpyrrolidin-2-yl)-1H-pyrrolo[3,2-c]pyridin-6-yl)-1H-indazole-6-carboxamide]
< 100 nM | A (Category A: A≥75% degradation) | A (Category A: A≥75% degradation) | A (Category A: A≥75% degradation) | Cc1nn(CCCCCCCC#Cc2ccc3c(c2)n(C)c(=O)n3C2CCC(=O)NC2=O)c2cc(C(=O)Nc3cc4[nH]c([C@H]5CCCN5C)cc4cn3)ccc12 (stereo partly drawn) [Example 39, 1-(9-(1-(2,6-dioxopiperidin-3-yl)-3-methyl-2-oxo-2,3-dihydro-1H-benzo[d]imidazol-5-yl)non-8-yn-1-yl)-3-methyl-N-(2-((R)-1-methylpyrrolidin-2-yl)-1H-pyrrolo[3,2-c]pyridin-6-yl)-1H-indazole-6-carboxamide]
< 100 nM | A (Category A: A≥75% degradation) | A (Category A: A≥75% degradation) | A (Category A: A≥75% degradation) | Cc1nn(CCCCCCCC#Cc2ccc(F)c3c2CN(C2CCC(=O)NC2=O)C3=O)c2cc(C(=O)Nc3cc4[nH]c([C@H]5CCCN5C)cc4cn3)ccc12 (stereo partly drawn) [Example 52, 1-(9-(2-(2,6-dioxopiperidin-3-yl)-7-fluoro-1-oxoisoindolin-4-yl)non-8-yn-1-yl)-3-methyl-N-(2-((R)-1-methylpyrrolidin-2-yl)-1H-pyrrolo[3,2-c]pyridin-6-yl)-1H-indazole-6-carboxamide]
< 100 nM | A (Category A: A≥75% degradation) | A (Category A: A≥75% degradation) | A (Category A: A≥75% degradation) | Cc1nn(CCCCCCCC#Cc2cccc3c2CN(C2CCC(=O)NC2=O)C3=O)c2cc(C(=O)Nc3cc4[nH]c([C@H]5CCCN5C)c(Cl)c4cn3)ccc12 (stereo partly drawn) [Example 53, N-(3-chloro-2-((R)-1-methylpyrrolidin-2-yl)-1H-pyrrolo[3,2-c]pyridin-6-yl)-1-(9-(2-(2,6-dioxopiperidin-3-yl)-1-oxoisoindolin-4-yl)non-8-yn-1-yl)-3-methyl-1H-indazole-6-carboxamide]
< 100 nM | A (Category A: A≥75% degradation) | A (Category A: A≥75% degradation) | A (Category A: A≥75% degradation) | Cc1nn(CCCCCCCCC#Cc2cccc3c2CN(C2CCC(=O)NC2=O)C3=O)c2cc(C(=O)Nc3cc4[nH]c([C@H]5CCCN5C)cc4cn3)ccc12 (stereo partly drawn) [Example 54, 1-(10-(2-(2,6-dioxopiperidin-3-yl)-1-oxoisoindolin-4-yl)dec-9-yn-1-yl)-3-methyl-N-(2-((R)-1-methylpyrrolidin-2-yl)-1H-pyrrolo[3,2-c]pyridin-6-yl)-1H-indazole-6-carboxamide]
< 100 nM | B (Category B: 50%≤B<75% degradation) | A (Category A: A≥75% degradation) | A (Category A: A≥75% degradation) | CN1CCC[C@@H]1c1cc2cnc(NC(=O)c3ccc4cnn(CCCCCCCC#Cc5cccc6c5CN(C5CCC(=O)NC5=O)C6=O)c4c3)cc2[nH]1 (stereo partly drawn) [Example 55, 1-(9-(2-(2,6-dioxopiperidin-3-yl)-1-oxoisoindolin-4-yl)non-8-yn-1-yl)-N-(2-((R)-1-methylpyrrolidin-2-yl)-1H-pyrrol[3,2-c]pyridin-6-yl)-1H-indazole-6-carboxamide]
< 100 nM | A (Category A: A≥75% degradation) | A (Category A: A≥75% degradation) | A (Category A: A≥75% degradation) | Cc1c([C@H]2CCCN2C)[nH]c2cc(NC(=O)c3ccc4c(C)nn(CCCCCCCC#Cc5cccc6c5CN(C5CCC(=O)NC5=O)C6=O)c4c3)ncc12 (stereo partly drawn) [Example 57, 1-(9-(2-(2,6-dioxopiperidin-3-yl)-1-oxoisoindolin-4-yl)non-8-yn-1-yl)-3-methyl-N-(3-methyl-2-((R)-1-methylpyrrolidin-2-yl)-1H-pyrrolo[3,2-c]pyridin-6-yl)-1H-indazole-6-carboxamide]
< 100 nM | A (Category A: A≥75% degradation) | A (Category A: A≥75% degradation) | A (Category A: A≥75% degradation) | Cc1nn(CCCCCCCC#Cc2cccc3c2CN(C2CCC(=O)NC2=O)C3=O)c2cc(C(=O)Nc3cc4[nH]c([C@H]5CCCN5C)cc4cn3)c(F)cc12 (stereo partly drawn) [Example 58, 1-(9-(2-(2,6-dioxopiperidin-3-yl)-1-oxoisoindolin-4-yl)non-8-yn-1-yl)-5-fluoro-3-methyl-N-(2-((R)-1-methylpyrrolidin-2-yl)-1H-pyrrolo[3,2-c]pyridin-6-yl)-1H-indazole-6-carboxamide]
< 100 nM | A (Category A: A≥75% degradation) | A (Category A: A≥75% degradation) | A (Category A: A≥75% degradation) | CN1CCC[C@@H]1c1cc2cnc(NC(=O)c3ccc4c(C5CC5)nn(CCCCCCCC#Cc5cccc6c5CN(C5CCC(=O)NC5=O)C6=O)c4c3)cc2[nH]1 (stereo partly drawn) [Example 59, 3-cyclopropyl-1-(9-(2-(2,6-dioxopiperidin-3-yl)-1-oxoisoindolin-4-yl)non-8-yn-1-yl)-N-(2-((R)-1-methylpyrrolidin-2-yl)-1H-pyrrolo [3,2-c]pyridin-6-yl)-1H-indazole-6-carboxamide]
< 100 nM | C (Category C: 25%≤C<50% degradation) | A (Category A: A≥75% degradation) | A (Category A: A≥75% degradation) | Cc1nn(CCCCCCCC#Cc2cccc(C3CCC(=O)NC3=O)c2F)c2cc(C(=O)Nc3cc4[nH]c([C@H]5CCCN5C)cc4cn3)ccc12 (stereo partly drawn) [Example 61, 1-(9-(3-(2,6-dioxopiperidin-3-yl)-2-fluorophenyl)non-8-yn-1-yl)-3-methyl-N-(2-((R)-1-methylpyrrolidin-2-yl)-1H-pyrrolo [3,2-c]pyridin-6-yl)-1H-indazole-6-carboxamide]
< 100 nM | A (Category A: A≥75% degradation) | A (Category A: A≥75% degradation) | A (Category A: A≥75% degradation) | Cc1nn(CCCCCCCC#Cc2cccc3c2CN(C2CCC(=O)NC2=O)C3=O)c2cc(C(=O)Nc3cc4[nH]c([C@H]5CCCN5C)c(C#N)c4cn3)ccc12 (stereo partly drawn) [Example 66, N-(3-cyano-2-((R)-1-methylpyrrolidin-2-yl)-1H-pyrrolo[3,2-c]pyridin-6-yl)-1-(9-(2-(2,6-dioxopiperidin-3-yl)-1-oxoisoindolin-4-yl)non-8-yn-1-yl)-3-methyl-1H-indazole-6-carboxamide]
